Experimental data published in the NIST ThermoML archive (doi:10.1021/je200668a).
Where “and” joins values, the source holds several entries; their conditions need not be identical. Equal entries are not always repeated.

Conditions: Liquid, Pulse Transmission

O [water]
Conditions | speed of sound
252.47 K, 215100 kPa | 1715.3 m/s
252.47 K, 220000 kPa | 1725.1 m/s
252.5 K, 205200 kPa | 1695.9 m/s
252.5 K, 209900 kPa | 1705.2 m/s
252.5 K, 215300 kPa | 1716.8 m/s
252.5 K, 240000 kPa | 1764.3 m/s
252.51 K, 220200 kPa | 1726.7 m/s
252.51 K, 235100 kPa | 1754.9 m/s
252.51 K, 245400 kPa | 1774.8 m/s
252.52 K, 210100 kPa | 1705.8 m/s and 1706 m/s
252.52 K, 244900 kPa | 1773.9 m/s
252.53 K, 200100 kPa | 1685.4 m/s
252.53 K, 204800 kPa | 1695.3 m/s
252.53 K, 215300 kPa | 1716.3 m/s
252.53 K, 225100 kPa | 1735.1 m/s
252.53 K, 230000 kPa | 1745 m/s and 1745.4 m/s
252.53 K, 240100 kPa | 1764.5 m/s
252.54 K, 235200 kPa | 1755.1 m/s
252.54 K, 239200 kPa | 1762.7 m/s
252.54 K, 245000 kPa | 1774.1 m/s
252.55 K, 225000 kPa | 1736.1 m/s
252.56 K, 204900 kPa | 1695.4 m/s
252.57 K, 198900 kPa | 1683.1 m/s
252.57 K, 199400 kPa | 1684.1 m/s
252.57 K, 229900 kPa | 1744.6 m/s
252.57 K, 235200 kPa | 1754.8 m/s
252.59 K, 225100 kPa | 1735.8 m/s
252.61 K, 220300 kPa | 1726.3 m/s
257.59 K, 225300 kPa | 1755 m/s
257.6 K, 175100 kPa | 1654.5 m/s
257.61 K, 199500 kPa | 1703.9 m/s
257.61 K, 275200 kPa | 1847.7 m/s
257.62 K, 274400 kPa | 1845.4 m/s
257.64 K, 250200 kPa | 1801.3 m/s
257.65 K, 224100 kPa | 1752.6 m/s
257.65 K, 276100 kPa | 1848.6 m/s
257.66 K, 199900 kPa | 1705.5 m/s
257.66 K, 299900 kPa | 1889.6 m/s
257.67 K, 249400 kPa | 1799.8 m/s
257.67 K, 299700 kPa | 1889.4 m/s
257.67 K, 300200 kPa | 1890.9 m/s
257.67 K, 374600 kPa | 2011.2 m/s
257.68 K, 325400 kPa | 1932.5 m/s
257.68 K, 375300 kPa | 2012.5 m/s
257.69 K, 176400 kPa | 1657.4 m/s
257.69 K, 199600 kPa | 1704.5 m/s
257.69 K, 249500 kPa | 1800.5 m/s
257.69 K, 349300 kPa | 1972.1 m/s
257.69 K, 350000 kPa | 1972.9 m/s
257.7 K, 176200 kPa | 1657.4 m/s
257.7 K, 224600 kPa | 1754 m/s
257.7 K, 325000 kPa | 1928.5 m/s
257.7 K, 325400 kPa | 1932.5 m/s
262.63 K, 299800 kPa | 1906 m/s
262.65 K, 224800 kPa | 1771.8 m/s
262.68 K, 250600 kPa | 1820.4 m/s
262.71 K, 324500 kPa | 1944.4 m/s
262.71 K, 349400 kPa | 1982.7 m/s
262.71 K, 399900 kPa | 2060 m/s
262.72 K, 274600 kPa | 1861.2 m/s
262.72 K, 374300 kPa | 2023.2 m/s
262.72 K, 424300 kPa | 2095.3 m/s
262.73 K, 249700 kPa | 1816.5 m/s
262.73 K, 299400 kPa | 1903.1 m/s
262.73 K, 324600 kPa | 1945.1 m/s
262.73 K, 349600 kPa | 1984.2 m/s
262.74 K, 124100 kPa | 1574.1 m/s
262.74 K, 199800 kPa | 1725.4 m/s
262.74 K, 299600 kPa | 1903.2 m/s
262.74 K, 425600 kPa | 2097.8 m/s
262.74 K, 449400 kPa | 2130.8 m/s
262.74 K, 450500 kPa | 2133 m/s
262.75 K, 274500 kPa | 1860.6 m/s
262.76 K, 148400 kPa | 1623.4 m/s
262.76 K, 150700 kPa | 1629.8 m/s
262.76 K, 199800 kPa | 1724.8 m/s
262.76 K, 224600 kPa | 1772.3 m/s
262.76 K, 251000 kPa | 1819.5 m/s
262.76 K, 350600 kPa | 1986.4 m/s
262.76 K, 375100 kPa | 2023 m/s
262.76 K, 399300 kPa | 2058.1 m/s
262.77 K, 126300 kPa | 1578.6 m/s
262.77 K, 174800 kPa | 1677.2 m/s and 1676.9 m/s
262.78 K, 399700 kPa | 2061.2 m/s
262.81 K, 149800 kPa | 1626.1 m/s
262.81 K, 200800 kPa | 1728.7 m/s
267.77 K, 199500 kPa | 1744.1 m/s
267.78 K, 100800 kPa | 1554.9 m/s
267.78 K, 300400 kPa | 1918.4 m/s
267.78 K, 349700 kPa | 1997.2 m/s
267.79 K, 149600 kPa | 1649.8 m/s and 1648.8 m/s
267.79 K, 399600 kPa | 2070.9 m/s
267.79 K, 500400 kPa | 2208.8 m/s
267.8 K, 249400 kPa | 1833.6 m/s
267.8 K, 449300 kPa | 2141.5 m/s
267.81 K, 98500 kPa | 1551.2 m/s
267.82 K, 400000 kPa | 2071.6 m/s
267.84 K, 100500 kPa | 1554.9 m/s
267.84 K, 199500 kPa | 1744.6 m/s
267.84 K, 450700 kPa | 2144.1 m/s
267.84 K, 500100 kPa | 2209.7 m/s
267.85 K, 299400 kPa | 1918.6 m/s
267.86 K, 399700 kPa | 2071.2 m/s
267.87 K, 249600 kPa | 1835 m/s
267.87 K, 251100 kPa | 1837.5 m/s
267.87 K, 349700 kPa | 1997.5 m/s
267.87 K, 449200 kPa | 2142.4 m/s
267.88 K, 150800 kPa | 1652.5 m/s
267.88 K, 299600 kPa | 1919.3 m/s
